Among the data in ChEMBL document CHEMBL4330132, “5-Keto-3-cyano-2,4-diaminothiophenes as selective maternal embryonic leucine zipper kinase inhibitors” (Bioorg Med Chem Lett, 2019) are Activity values, retold here.

Each structure is given as a SMILES string.

Test [1] concerns the target Tyrosine-protein kinase ABL2 (Homo sapiens) (UniProt P42684). Kind of test: Binding affinity to wild-type human ABL2 (A248 to G542 residues) expressed in bacterial expression system assessed as residual binding level at 1 uM by Kinomescan method relative to control.
For test [2], the target named is Tyrosine-protein kinase receptor UFO (Homo sapiens) (UniProt P30530). The test can be described thus: Binding affinity to wild-type human partial length AXL (R497 to Y821 residues) expressed in bacterial expression system assessed as residual binding level at 1 uM by Kinomescan method relative to control.
The target in test [3] is Calcium/calmodulin-dependent protein kinase kinase 1 (Homo sapiens) (UniProt Q8N5S9). The test can be described thus: Binding affinity to wild-type human partial length CAMKK1 (R65 to E414 residues) expressed in bacterial expression system assessed as residual binding level at 1 uM by Kinomescan method relative to control.
For test [4], the target named is Casein kinase I isoform gamma-3 (Homo sapiens) (UniProt Q9Y6M4). The test can be described thus: Binding affinity to wild-type human full length CSNK1G3 (M1 to K447 residues) expressed in bacterial expression system assessed as residual binding level at 1 uM by Kinomescan method relative to control.
The test system of test [5] is Epidermal growth factor receptor (Homo sapiens), P00533 [UNDEFINED MUTATION]. Kind of test: Binding affinity to human partial length EGFR E746-A750del mutant expressed in bacterial expression system assessed as residual binding level at 1 uM by Kinomescan method relative to control.
The target in test [6] is Ephrin type-B receptor 4 (Homo sapiens) (UniProt P54760). Kind of test: Binding affinity to wild-type human partial length EPHB4 (H585 to G892 residues) expressed in bacterial expression system assessed as residual binding level at 1 uM by Kinomescan method relative to control.
Test [7] has as its system Receptor-type tyrosine-protein kinase FLT3 (Homo sapiens), P36888 [D835H]. The test can be described thus: Binding affinity to human partial length FLT3 D835H mutant (V592 to Y969 residues) expressed in bacterial expression system assessed as residual binding level at 1 uM by Kinomescan method relative to control.
Test [8] has as its target Mitogen-activated protein kinase kinase kinase kinase 1 (Homo sapiens) (UniProt Q92918). The test can be described thus: Binding affinity to wild-type human full length HPK1 (M1 to R799 residues) expressed in bacterial expression system assessed as residual binding level at 1 uM by Kinomescan method relative to control.
Test [9] deals with Mast/stem cell growth factor receptor Kit (Homo sapiens) (UniProt P10721). The test can be described thus: Binding affinity to wild-type human partial length KIT (I571 to D952 residues) expressed in bacterial expression system assessed as residual binding level at 1 uM by Kinomescan method relative to control.
The test system of test [10] is Mast/stem cell growth factor receptor Kit (Homo sapiens), P10721 [A829P]. Kind of test: Binding affinity to human partial length KIT A829P mutant (I571 to D952 residues) expressed in mammalian expression system assessed as residual binding level at 1 uM by Kinomescan method relative to control.
Test [11] relates to Mast/stem cell growth factor receptor Kit (Homo sapiens), P10721 [D816H]. Kind of test: Binding affinity to human partial length KIT D816H mutant (I571 to D952 residues) expressed in mammalian expression system assessed as residual binding level at 1 uM by Kinomescan method relative to control.
Test [12] relates to Mast/stem cell growth factor receptor Kit (Homo sapiens), P10721 [V559D,T670I]. Kind of test: Binding affinity to human partial length KIT V559D/T670I double mutant (Y545 to D952 residues) expressed in bacterial expression system assessed as residual binding level at 1 uM by Kinomescan method relative to control.
The target of test [13] is Serine/threonine-protein kinase LATS1 (Homo sapiens) (UniProt O95835). The test can be described thus: Binding affinity to wild-type human partial length LATS1 (Q678 to V1130 residues) expressed in bacterial expression system assessed as residual binding level at 1 uM by Kinomescan method relative to control.
Test [14] addresses Serine/threonine-protein kinase MRCK alpha (Homo sapiens) (UniProt Q5VT25). The test can be described thus: Binding affinity to wild-type human partial length MRCKA (L57 to V418 residues) expressed in bacterial expression system assessed as residual binding level at 1 uM by Kinomescan method relative to control.
The target in test [15] is Macrophage-stimulating protein receptor (Homo sapiens) (UniProt Q04912). Kind of test: Binding affinity to wild-type human partial length MST1R (I1057 to L1363 residues) expressed in bacterial expression system assessed as residual binding level at 1 uM by Kinomescan method relative to control.
The target of test [16] is Myosin light chain kinase family member 4 (Homo sapiens) (UniProt Q86YV6). Kind of test: Binding affinity to wild-type human partial length MYLK4 (V79 to S380 residues) expressed in bacterial expression system assessed as residual binding level at 1 uM by Kinomescan method relative to control.
The target of test [17] is Serine/threonine-protein kinase Nek1 (Homo sapiens) (UniProt Q96PY6). Kind of test: Binding affinity to wild-type human partial length NEK1 (M1 to K278 residues) expressed in bacterial expression system assessed as residual binding level at 1 uM by Kinomescan method relative to control.
For test [18], the target named is Serine/threonine-protein kinase OSR1 (Homo sapiens) (UniProt O95747). The test can be described thus: Binding affinity to wild-type human full length OSR1 (M1 to S527 residues) expressed in mammalian expression system assessed as residual binding level at 1 uM by Kinomescan method relative to control.
In test [19] the target is Serine/threonine-protein kinase pim-1 (Homo sapiens) (UniProt P11309). Kind of test: Binding affinity to wild-type human partial length PIM1 (A15 to K313 residues) expressed in bacterial expression system assessed as residual binding level at 1 uM by Kinomescan method relative to control.
Test [20] concerns the target Serine/threonine-protein kinase PRP4 homolog (Homo sapiens) (UniProt Q13523). Kind of test: Binding affinity to wild-type human partial length PRP4 (D657 to I1007 residues) expressed in bacterial expression system assessed as residual binding level at 1 uM by Kinomescan method relative to control.
In test [21] the target is Ribosomal protein S6 kinase alpha-2 (Homo sapiens) (UniProt Q15349). Kind of test: Binding affinity to wild-type human partial length N-terminal RSK3 kinase domain 1 (M1 to Q385 residues) expressed in bacterial expression system assessed as residual binding level at 1 uM by Kinomescan method relative to control.
For test [22], the target named is Serine/threonine-protein kinase SIK2 (Homo sapiens) (UniProt Q9H0K1). The test can be described thus: Binding affinity to wild-type human full length SIK2 (M1 to N926 residues) expressed in bacterial expression system assessed as residual binding level at 1 uM by Kinomescan method relative to control.
The target in test [23] is Serine/threonine-protein kinase tousled-like 2 (Homo sapiens) (UniProt Q86UE8). The test can be described thus: Binding affinity to wild-type human partial length TLK2 (E424 to N749 residues) expressed in bacterial expression system assessed as residual binding level at 1 uM by Kinomescan method relative to control.
Test [24] deals with Testis-specific serine/threonine-protein kinase 1 (Homo sapiens) (UniProt Q9BXA7). Kind of test: Binding affinity to wild-type human full length TSSK1B (M1 to Q367 residues) expressed in bacterial expression system assessed as residual binding level at 1 uM by Kinomescan method relative to control.

Take `CC(C)Nc1sc(C(=O)c2ccc(Cl)s2)c(N)c1C#N`: the Activity came to 95% in test [1]; 89% in [2]; 72% in test [3]; 77% in test [4]; 93% in test [5]; 93% in test [6]. The Activity in [7] came out at 60%; in test [8] it was 100%; in test [9], 76%; in test [10], 66%; in test [11], 77%; in test [12] it was 87%. The Activity in [13] was 98%; in test [14] it was 87%; in test [15], 98%; in [16], 96%; in test [17], 79%; in test [18] it was 83%. Besides, the Activity was 92% in [19]; 100% in test [20]; 54% in test [21]; 92% in test [22]; 100% in [23]; 100% in [24].
